What all share (settings): L55-73: estimated values based on the knowledge obtained from L01-L54
For one assay, the system named is Palivizumab. Description: Microtiter plate chromatography of resins: binding and elution of Palivizumab. As for the experimental part: (§1) Resins were assessed in packed mode by microtiter plate chromatography. For each column, approximately 30 μl of resin were transferred to a 384-well filter plate and sealed with appropriate top fits. Columns with rProtein A SEPHAROSE 4 FF and MABSORBENT A2P HF were included as controls.
(§2) Either 3.3 cv of whole IgGs dissolved at 0.5 mg ml^−1 in PBS or undiluted host cell proteins (HCP) were injected onto columns.
(§3) Unbound protein was washed from columns with 5 cv of PBS prior to elution with 5 cv of glycine buffer at pH 2.5. […] During injection of samples, speed was reduced to 10 g and centrifugation time increased to 5-10 min. Effluent fractions were collected in 384-well plates and concentrations of protein were analyzed by Bradford assay. Protein masses mi, mft and me (see below) were calculated as the product of fraction volume and measured protein concentration.
(§4) The fraction of bound protein was calculated as the difference between the total mass of protein injected mi and the mass of protein detected in the flowthrough mft, divided by the total mass of protein injected.
(§5) The yield of protein was calculated as the mass of protein eluted me, divided by the mass of protein injected mi.
(§6) The fraction of bound protein and the yield of protein were calculated for each resin based on data for whole IgG-antibodies. In the case of host cell proteins, only the fraction of bound protein is given. Selectivity of resins was calculated from data for Bevacizumab whole IgG and host cell proteins. Due to limited experimental precision, selectivity was truncated for values beyond 10.

A further assay relates to host cell proteins (HCP). Description: Microtiter plate chromatography of resins: binding of host cell proteins. The arrangement: species or system CHO cell culture. The protocol:
Flowthrough from protein A chromatography (referred to as host cell proteins) was derived from the supernatant of antibody-producing CHO cell culture in serum-free medium. Coomassie brilliant blue dye reagent for Bradford assay was purchased from Thermo Scientific (Bonn/Germany).
as §1, §2, §3, §4, §6

The next assay deals with T1, Bevacizumab (Homo sapiens, UniProt P01857).
T1 construct: 0.5 mg/ml IgG in PBS pH 7.3; ligand immobilized on SEPHAR; Bevacizumab Yield; other: mass eluted (glycine pH 2.5) / mass injected; kd (dissociation constant, Langmuir isotherm); other: Bevacizumab 0.05-5 mg/ml in PBS pH 7.3, 25° C., at least 3 h; qm (maximum capacity); other: mg Bevacizumab per ml of resin; Langmuir isotherm; t0; fused on or other part: Humanized anti-VEGF-A VH domain joined N-terminally to the IGHG1 constant region (engineered, no UniProt entry)
Description: Microtiter plate chromatography of resins: binding and elution of Bevacizumab. As for the experimental part:
as §1, §2, §3, §4, §5
The selectivity of resins was calculated as the fraction of bound Bevacizumab antibody BAb, divided by the fraction of bound host cell proteins BHCP.
as §6

Assay [1] deals with poly-IgG from human serum (h-poly-IgG). Description: Microtiter plate chromatography of resins: binding and elution of human poly-IgG. The protocol:
as §1, §2, §3, §4, §5, §6

The next assay relates to Tocilizumab. Description: Microtiter plate chromatography of resins: binding and elution of Tocilizumab. The protocol:
as §1, §2, §3, §4, §5, §6

In a further assay the test system is Cetuximab. Description: Microtiter plate chromatography of resins: binding and elution of Cetuximab. As for the experimental part:
as §1, §2, §3, §4, §5, §6

In the case of `NCCCn1cnc2cc(C(=O)Nc3nc(-c4ccco4)cs3)ccc21` [Ligand L57, 1-(3-Amino-1-propyl)benzimidazole-5-carboxylic acid N-[4-(2-furyl)thiazol-2-yl] amide], in the assay with Palivizumab, the “Palivizumab Bound” value is given as above 80%. The “HCP Bound” value with host cell proteins (HCP) is on record as below 40%. Also, on Bevacizumab, the “Bevacizumab Bound” value is listed as 100% and the “Bevacizumab Yield” value is given as above 80%. Moreover, the “h-poly-IgG Bound” value in assay [1] was above 80%. In the assay with Tocilizumab, the “Tocilizumab Bound” value is above 95%. Besides, in the assay with Cetuximab, the “Cetuximab Bound” value is 100%.

As for `Cc1nc2cc(C(=O)Nc3nc(-c4ccco4)ns3)ccc2n1CCCN` [Ligand L60, 1-(3-Amino-1-propyl)-2-methylbenzimidazole-5-carboxylic acid N-[3-(2-furyl)-1,2,4-thiadiazol-5-yl] amide], in the assay with Palivizumab, the “Palivizumab Bound” value is above 80%. Moreover, in the assay on host cell proteins (HCP), the “HCP Bound” value is on record as below 40%. Besides, on Bevacizumab, the “Bevacizumab Bound” value is given as 100% and the “Bevacizumab Yield” value is on record as above 80%. In addition, the “h-poly-IgG Bound” value in assay [1] is recorded as above 80%. The “Tocilizumab Bound” value with Tocilizumab is above 95%. Further, in the assay with Cetuximab, the “Cetuximab Bound” value is on record as 100%.

Regarding `NCCCn1cnc2cc(C(=O)Nc3ccc(-c4ccco4)nn3)ccc21` [Ligand L59, 1-(3-Amino-1-propyl)benzimidazole-5-carboxylic acid N-[6-(2-furyl)pyridazin-3-yl] amide], in the assay on Palivizumab, the “Palivizumab Bound” value was above 60%. Moreover, in the assay with host cell proteins (HCP), the “HCP Bound” value is recorded as below 40%. In addition, on Bevacizumab, the “Bevacizumab Bound” value is on record as 100% and the “Bevacizumab Yield” value is listed as above 80%. Further, the “h-poly-IgG Bound” value in assay [1] is above 80%. For the same compound, in the assay on Tocilizumab, the “Tocilizumab Bound” value is given as above 90%. Further, in the assay on Cetuximab, the “Cetuximab Bound” value is given as above 95%.

On to `CCc1nc2cc(C(=O)Nc3ccc(-c4ccco4)nn3)ccc2n1CCCN` [Ligand L69, 1-(3-Amino-1-propyl)-2-ethylbenzimidazole-5-carboxylic acid N-[6-(2-furyl)pyridazin-3-yl]amide], for which the “Palivizumab Bound” value with Palivizumab is above 60%. In addition, the “HCP Bound” value in the assay with host cell proteins (HCP) is listed as below 30%. In addition, on Bevacizumab, the “Bevacizumab Bound” value is recorded as 100% and the “Bevacizumab Yield” value is above 80%. Besides, the “h-poly-IgG Bound” value in assay [1] is recorded as above 80%. Also, the “Tocilizumab Bound” value in the assay with Tocilizumab is above 90%. The “Cetuximab Bound” value in the assay on Cetuximab was above 95%.

As for `Cc1nc2cc(C(=O)Nc3nnc(-c4ncco4)s3)ccc2n1CCCN` [Ligand L73, 1-(3-Amino-1-propyl)-2-methylbenzimidazole-5-carboxylic acid N-[5-(2-oxazolyl)-1,3,4-thiadiazol-2-yl] amide], the “Palivizumab Bound” value in the assay on Palivizumab is on record as above 60%. In addition, the “HCP Bound” value in the assay with host cell proteins (HCP) is below 20%. Besides, on Bevacizumab, the “Bevacizumab Bound” value is recorded as 100% and the “Bevacizumab Yield” value was above 80%. In addition, the “h-poly-IgG Bound” value in assay [1] was above 80%. Moreover, in the assay with Tocilizumab, the “Tocilizumab Bound” value was above 90%. For the same compound, in the assay on Cetuximab, the “Cetuximab Bound” value is reported as above 95%.

For the compound `NCCCn1cnc2cc(C(=O)Nc3ncc(-c4ccco4)s3)ccc21` [Ligand L58, 1-(3-Amino-1-propyl)benzimidazole-5-carboxylic acid N-[5-(2-furyl)thiazol-2-yl] amide], the “Palivizumab Bound” value in the assay on Palivizumab is above 80%. Moreover, the “HCP Bound” value in the assay on host cell proteins (HCP) was below 40%. Besides, at Bevacizumab, the “Bevacizumab Bound” value is on record as 100% and the “Bevacizumab Yield” value is above 80%. Further, in assay [1], the “h-poly-IgG Bound” value is on record as above 80%. Moreover, the “Tocilizumab Bound” value in the assay on Tocilizumab was above 95%. Besides, the “Cetuximab Bound” value in the assay with Cetuximab is given as 100%.

With `CCc1nc2cc(C(=O)Nc3nc(-c4ccco4)cs3)ccc2n1CCCN` [Ligand L67, 1-(3-Amino-1-propyl)-2-ethylbenzimidazole-5-carboxylic acid N-[4-(2-furyl)thiazol-2-yl] amide], the “Palivizumab Bound” value with Palivizumab was above 80%. For the same compound, in the assay on host cell proteins (HCP), the “HCP Bound” value is below 30%. For the same compound, on Bevacizumab, the “Bevacizumab Bound” value is given as 100% and the “Bevacizumab Yield” value was above 80%. In addition, the “h-poly-IgG Bound” value in assay [1] is listed as above 80%. The “Tocilizumab Bound” value with Tocilizumab is reported as above 95%. Besides, the “Cetuximab Bound” value in the assay on Cetuximab is reported as 100%.

For `Cc1nc2cc(C(=O)Nc3ncc(-c4ccco4)s3)ccc2n1CCCN` [Ligand L63, 1-(3-Amino-1-propyl)-2-methylbenzimidazole-5-carboxylic acid N-[5-(2-furyl)thiazol-2-yl] amide], in the assay on Palivizumab, the “Palivizumab Bound” value was above 80%. For the same compound, the “HCP Bound” value with host cell proteins (HCP) is below 20%. For the same compound, on Bevacizumab, the “Bevacizumab Bound” value is given as 100% and the “Bevacizumab Yield” value is given as above 80%. Further, the “h-poly-IgG Bound” value in assay [1] is given as above 80%. Moreover, the “Tocilizumab Bound” value with Tocilizumab was above 95%. The “Cetuximab Bound” value with Cetuximab is reported as 100%.

Turning to `CCc1nc2cc(C(=O)Nc3nc(-c4ccco4)ns3)ccc2n1CCCN` [Ligand L65, 1-(3-Amino-1-propyl)-2-ethylbenzimidazole-5-carboxylic acid N-[3-(2-furyl)-1,2,4-thiadiazol-5-yl] amide], the “Palivizumab Bound” value with Palivizumab is listed as above 80%. Moreover, the “HCP Bound” value in the assay with host cell proteins (HCP) is given as below 30%. Moreover, on Bevacizumab, the “Bevacizumab Bound” value is on record as 100% and the “Bevacizumab Yield” value is above 80%. The “h-poly-IgG Bound” value in assay [1] is recorded as above 80%. Further, the “Tocilizumab Bound” value in the assay with Tocilizumab is on record as above 95%. Besides, the “Cetuximab Bound” value in the assay with Cetuximab is 100%.

In the case of `Cc1nc2cc(C(=O)Nc3nnc(-c4ccoc4)s3)ccc2n1CCCN` [Ligand L61, 1-(3-Amino-1-propyl)-2-methylbenzimidazole-5-carboxylic acid N-[5-(3-furyl)-1,3,4-thiadiazol-2-yl] amide], the “Palivizumab Bound” value with Palivizumab is above 80%. Moreover, the “HCP Bound” value with host cell proteins (HCP) is given as below 40%. At Bevacizumab, the “Bevacizumab Bound” value was 100% and the “Bevacizumab Yield” value is on record as above 80%. Besides, in assay [1], the “h-poly-IgG Bound” value is recorded as above 80%. Besides, the “Tocilizumab Bound” value with Tocilizumab is given as above 95%. In addition, the “Cetuximab Bound” value in the assay on Cetuximab was 100%.

On to `Cc1nc2cc(C(=O)Nc3nnc(-c4cnco4)s3)ccc2n1CCCN` [Ligand L72, 1-(3-Amino-1-propyl)-2-methylbenzimidazole-5-carboxylic acid N-[5-(5-oxazolyl)-1,3,4-thiadiazol-2-yl] amide], for which, in the assay on Palivizumab, the “Palivizumab Bound” value is given as above 60%. Also, the “HCP Bound” value in the assay with host cell proteins (HCP) is given as below 20%. At Bevacizumab, the “Bevacizumab Bound” value was 100% and the “Bevacizumab Yield” value was above 80%. Moreover, in assay [1], the “h-poly-IgG Bound” value is above 80%. In addition, in the assay on Tocilizumab, the “Tocilizumab Bound” value was above 90%. Moreover, in the assay with Cetuximab, the “Cetuximab Bound” value is above 95%.

Take `Cc1nc2cc(C(=O)Nc3ccc(-c4ccco4)nn3)ccc2n1CCCN` [Ligand L64, 1-(3-Amino-1-propyl)-2-methylbenzimidazole-5-carboxylic acid N-[6-(2-furyl)pyridazin-3-yl] amide]: the “Palivizumab Bound” value with Palivizumab was above 60%. The “HCP Bound” value in the assay with host cell proteins (HCP) was below 20%. Moreover, on Bevacizumab, the “Bevacizumab Bound” value is 100% and the “Bevacizumab Yield” value is on record as above 80%. For the same compound, the “h-poly-IgG Bound” value in assay [1] was above 80%. For the same compound, the “Tocilizumab Bound” value in the assay with Tocilizumab is above 90%. Further, the “Cetuximab Bound” value with Cetuximab is on record as above 95%.

As for `NCCCn1cnc2cc(C(=O)Nc3nnc(-c4ccoc4)s3)ccc21` [Ligand L56, 1-(3-Amino-1-propyl)benzimidazole-5-carboxylic acid N-[5-(3-furyl)-1,3,4-thiadiazol-2-yl] amide], the “Palivizumab Bound” value in the assay with Palivizumab is above 80%. Besides, the “HCP Bound” value with host cell proteins (HCP) is recorded as below 40%. Besides, at Bevacizumab, the “Bevacizumab Bound” value is 100% and the “Bevacizumab Yield” value is given as above 80%. Also, the “h-poly-IgG Bound” value in assay [1] is above 80%. Besides, in the assay on Tocilizumab, the “Tocilizumab Bound” value is above 95%. In addition, the “Cetuximab Bound” value with Cetuximab is 100%.

`CCc1nc2cc(C(=O)Nc3ncc(-c4ccco4)s3)ccc2n1CCCN` [Ligand L68, 1-(3-Amino-1-propyl)-2-ethylbenzimidazole-5-carboxylic acid N-[5-(2-furyl)thiazol-2-yl] amide]: the “Palivizumab Bound” value in the assay with Palivizumab was above 80%. In addition, the “HCP Bound” value in the assay with host cell proteins (HCP) is reported as below 30%. At Bevacizumab, the “Bevacizumab Bound” value is reported as 100% and the “Bevacizumab Yield” value is above 80%. In addition, in assay [1], the “h-poly-IgG Bound” value is listed as above 80%. In the assay with Tocilizumab, the “Tocilizumab Bound” value was above 95%. Moreover, the “Cetuximab Bound” value in the assay on Cetuximab is listed as 100%.

On to `NCCCNc1nc(-c2ccc(C(=O)Nc3nnc(-c4ccco4)s3)cc2)cs1` [Ligand L70, 4-[2-(3-Amino-1-propylamino)thiazol-4-yl]benzoic acid N-[5-(2-furyl)-1,3,4-thiadiazol-2-yl]amide], for which, in the assay on Palivizumab, the “Palivizumab Bound” value is on record as above 50%. Also, the “HCP Bound” value in the assay with host cell proteins (HCP) is on record as below 40%. On Bevacizumab, the “Bevacizumab Bound” value is listed as 100% and the “Bevacizumab Yield” value is listed as above 80%. Moreover, the “h-poly-IgG Bound” value in assay [1] was above 80%. Also, in the assay on Tocilizumab, the “Tocilizumab Bound” value is listed as above 80%. Moreover, in the assay with Cetuximab, the “Cetuximab Bound” value is above 80%.

These data come from patent US9745339B2 (GRAFFINITY PHARMACEUTICALS GMBH, priority 2012, dated 2017).
